Measured values reported in patent US20200261576A1, “APOPTOTIC CELL-MEDIATED INDUCTION OF ANTIGEN SPECIFIC REGULATORY T-CELLS FOR THE THERAPY OF AUTOIMMUNE DISEASES IN ANIMALS AND HUMANS” (The United States of America, as represented by the …, priority 2013, published 2020).

How the values were obtained:
splenocytes = assay: Antigen-recall T cell proliferation and cytokine production of splenocytes from SJL EAE mice; assay type: cell-based; settings: therapy model; splenocytes restimulated with pPLP
Procedure: Cytokine assays. Splenocytes were cultured at 37° C. in 5% CO2 for 2-3 days with either soluble CD3-specific antibody (anti-CD3) (0.5 μg/ml) or MT (heat-killed M. tuberculosis, H37RA, DIFCO) (50 μg/ml) or peptides (pMOG, pPLP) (0-50 μg/ml as indicated). Cytokines were quantified in culture supernatants by ELISA; TNF-α, IL-6, and IFN-γ (BioLegend) and IL-17 (eBioscience). EAE induction, scoring, analysis and in vitro cell cultures. Peptide-induced EAE was induced in SJL mice and C57BL/6 mice as previously reported^11,20. Individual mice were observed daily and clinical scores were assessed on a 0-5 scale as follows: 0, no abnormality; 1, limp tail or hind limb weakness; 2, limp tail and hind limb weakness; 3, hind limb paralysis; 4, hind limb paralysis and forelimb weakness; and 5, moribund. […] Radioactive incorporation was counted using a flatbed β-counter (Wallac). […]

SJL mice = assay: Prevention of EAE in SJL mice (treatment before immunization); assay type: in vivo
Procedure: Antibodies used for in vivo. Anti-CD4 (clone Gk1.5), anti-CD8 antibody (clone 53-6.72), anti-TGFβ antibody (clone ID11) and mouse IgG1 (clone MOPC-21) were purchased from Bio X cell. Anti-CD20 antibody (clone 5D2) was a gift from Genentech. T cell depletion studies in EAE disease models. For EAE prevention studies SJL/J mice were either untreated or treated with CD4− (100 μg/mouse) and CD8− (50 μg/mouse) specific antibody (T cell depletion antibody). Some mice were immediately injected i.p. with pPLP or pOVA (25 μg/mouse) or PBS every other day for 16 days. All mice were immunized with pPLP and CFA (day 0). For EAE treatment studies, SJL mice were treated with CD4- and CD8-specific antibody and 5 μg of pPLP, pOVA or PBS i.p. every other day from day 12 to day 26 following immunization with pPLP (day 0). For EAE prevention studies, SJL mice were treated with CD4- and CD8-specific antibody at day −21, and 25 μg of pPLP, pOVA or PBS i.p. every other day from day −18 to day −2 before immunization with pPLP (day 0). In C57BL/6 mice, same T cell depletion regimen was utilized but pMOG (10 μg mouse) was administered via i.p. In some mice, anti-TGFβ or isotype control antibody (mIgG1) (200 μg/mice each day) were injected i.p. one day after T cell depletion. […] Mice were monitored for clinical score of disease and sacrificed at indicated time points. […]

## proteolipid protein peptide PLP139-151 (HSLGKWLGHPDKF; listed as Mus musculus)
splenocytes
  pPLP-specific T cell proliferation and inflammatory cytokine production: no reduction
SJL mice
  EAE clinical disease, prevention: failed to prevent EAE
